How the values were obtained:
velvetleaf = experiment: Test C pre-/postemergence herbicide test; type: in vivo, Abutilon theophrasti; details: for Plant response rating, Velvetleaf: preemergence; for Velvetleaf plant response rating: Preemergence, 500 g ai/ha, scale 0 to 100, 0 no effect, 100 complete control
In short: (§1)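 Seeds were planted and sprayed preemergence with test chemicals in a non-phytotoxic solvent mixture containing surfactant; postemergence treatments went onto plants 2 to 18 cm tall (1- to 4-leaf stage). After 12 to 14 days in a greenhouse, injury was rated visually against untreated controls on a 0–100 scale.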

cocklebur = experiment: Test C pre-/postemergence herbicide test; type: in vivo, Xanthium strumarium; details: for Plant response rating (0 = no effect, 100 = complete control), Cocklebur / Plant response rating, Cocklebur: preemergence; for Cocklebur plant response rating: Preemergence, 500 g ai/ha, scale 0 to 100, 0 no effect, 100 complete control
In short: as §1

corn = experiment: Test C pre-/postemergence herbicide test; type: in vivo, Zea mays; details: for Plant response rating (0 = no effect, 100 = complete control), Corn / Plant response rating, Corn: preemergence; for Corn plant response rating: Preemergence, 500 g ai/ha, scale 0 to 100, 0 no effect, 100 complete control
In short: as §1

redroot pigweed = experiment: Test A pre-/postemergence herbicide test; type: in vivo, Amaranthus retroflexus
In short: (§2)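 Seeds sown in sandy loam received a preemergence directed soil spray of compound in non-phytotoxic solvent with surfactant; postemergence plants (2–10 cm, one- to two-leaf stage) were sprayed to runoff at the same time. After ~10 days in greenhouse, injury was rated visually versus untreated controls (0 = no effect, 100 = complete control).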

pigweed = experiment: Test C pre-/postemergence herbicide test; type: in vivo, Amaranthus retroflexus; details: for Plant response rating (0 = no effect, 100 = complete control), Pigweed / Plant response rating, Pigweed: preemergence; for Pigweed plant response rating: Preemergence, 500 g ai/ha, scale 0 to 100, 0 no effect, 100 complete control
In short: as §1

morningglory [1] = experiment: Test C pre-/postemergence herbicide test; type: in vivo, Ipomoea coccinea; design: key to Plant response rating, Morningglory: 0 = no effect, 100 = complete control; details: for Plant response rating (0 = no effect, 100 = complete control), Morningglory / Plant response rating, Morningglory: preemergence; for Morningglory plant response rating: Preemergence, 500 g ai/ha, scale 0 to 100, 0 no effect, 100 complete control
In short: as §1

eastern black nightshade = experiment: Test C pre-/postemergence herbicide test; type: in vivo, Solanum ptycanthum; details: for Plant response rating (0 = no effect, 100 = complete control), Nightshade / Plant response rating, Nightshade: preemergence; for Nightshade plant response rating: Preemergence, 500 g ai/ha, scale 0 to 100, 0 no effect, 100 complete control
In short: as §1

johnsongrass = experiment: Test C pre-/postemergence herbicide test; type: in vivo, Sorghum halepense; details: for Plant response rating (0 = no effect, 100 = complete control), Johnsongrass / Plant response rating, Johnsongrass: preemergence; for Johnsongrass plant response rating: Preemergence, 500 g ai/ha, scale 0 to 100, 0 no effect, 100 complete control
In short: as §1

morningglory [2] = experiment: Test A pre-/postemergence herbicide test; type: in vivo, Ipomoea spp.
In short: as §2

Surinam grass = experiment: Test C pre-/postemergence herbicide test; type: in vivo, Urochloa decumbens; details: for Plant response rating (0 = no effect, 100 = complete control), Surinam Grass / Plant response rating, Surinam Grass: preemergence; for Surinam Grass plant response rating: Preemergence, 500 g ai/ha, scale 0 to 100, 0 no effect, 100 complete control
In short: as §1

[3] = 125 g ai/ha, scale 0 (no effect) to 100 (complete control), visual, 12 to 14 days
[4] = 250 g ai/ha, scale 0 to 100 (0 no effect, 100 complete control), visual, 12 to 14 days
[5] = Postemergence, 500 g ai/ha, 0 to 100 scale, 0 no effect, 100 complete control
[6] = Postemergence, 2000 g ai/ha, 0 to 100 scale, 0 no effect, 100 complete control
[7] = Preemergence, 500 g ai/ha, visual rating, 0 to 100 scale (0 no effect, 100 complete control)
[8] = Preemergence, 2000 g ai/ha, 0 to 100 scale, 0 no effect, 100 complete control
[9] = Postemergence, 250 g ai/ha, 0 to 100 scale, 0 no effect, 100 complete control
[10] = Postemergence, 1000 g ai/ha, 0 to 100 scale, 0 no effect, 100 complete control
[11] = Preemergence, 1000 g ai/ha, visual rating, 0 to 100 scale (0 no effect, 100 complete control)
[12] = preemergence, 250 g ai/ha, visual injury, 0 to 100 scale (0 no effect, 100 complete control)
[13] = Preemergence, 2000 g ai/ha, visual rating, 0 to 100 scale (0 no effect, 100 complete control)
[14] = preemergence, 500 g ai/ha, visual injury, 0 to 100 scale (0 no effect, 100 complete control)

CCOC(=O)c1cccc(NC(=O)c2cc(C(C)(C)C)nn2CC)c1C [Compound 88]
Plant response rating, Velvetleaf (velvetleaf; [3]): 0 | Velvetleaf plant response rating (velvetleaf): 50 | Plant response rating (0 = no effect, 100 = complete control), Cocklebur (cocklebur; 62 g ai/ha): 0 | Plant response rating, Cocklebur (cocklebur; [3]): 0 | Plant response rating, Cocklebur (cocklebur; [4]): 0 | Cocklebur plant response rating (cocklebur): 0 | Plant response rating (0 = no effect, 100 = complete control), Corn (corn; 62 g ai/ha): 0 | Plant response rating, Corn (corn; [3]): 5 | Plant response rating, Corn (corn; [4]): 5 | Corn plant response rating (corn): 60 | Pigweed plant response rating (redroot pigweed; [5]): 90 | Plant response rating, Pigweed (redroot pigweed; [6]): 100 | Pigweed plant response rating (redroot pigweed; [7]): 90 | Pigweed plant response rating (redroot pigweed; [8]): 100 | Plant response rating (0 = no effect, 100 = complete control), Pigweed (pigweed; 62 g ai/ha): 100 | Plant response rating, Pigweed (pigweed; [3]): 100 | Pigweed plant response rating (pigweed): 100 | Plant response rating (0 = no effect, 100 = complete control), Morningglory (morningglory [1]; 62 g ai/ha): 0 | Plant response rating, Morningglory (morningglory [1]; [3]): 0 | Morningglory plant response rating (morningglory [1]): 20 | Plant response rating (0 = no effect, 100 = complete control), Nightshade (eastern black nightshade; 62 g ai/ha): 40 | Plant response rating, Nightshade (eastern black nightshade; [3]): 90 | Nightshade plant response rating (eastern black nightshade): 95 | Plant response rating (0 = no effect, 100 = complete control), Johnsongrass (johnsongrass; 62 g ai/ha): 0 | Plant response rating, Johnsongrass (johnsongrass; [3]): 20 | Johnsongrass plant response rating (johnsongrass): 70 | Morningglory plant response rating (morningglory [2]; [5]): 35 | Plant response rating, Morningglory (morningglory [2]; [6]): 40 | Morningglory plant response rating (morningglory [2]; [7]): 10 | Morningglory plant response rating (morningglory [2]; [8]): 40 | Plant response rating (0 = no effect, 100 = complete control), Surinam Grass (Surinam grass; 62 g ai/ha): 10 | Plant response rating, Surinam Grass (Surinam grass; [3]): 20 | Surinam Grass plant response rating (Surinam grass): 95

CCn1nc(C(C)(C)C)cc1C(=O)Nc1cccc(SC)c1 [Compound 131]
Plant response rating, Velvetleaf (velvetleaf; [3]): 15 | Plant response rating (0 = no effect, 100 = complete control), Cocklebur (cocklebur; 62 g ai/ha): 0 | Plant response rating, Cocklebur (cocklebur; [3]): 20 | Plant response rating, Cocklebur (cocklebur; [4]): 25 | Plant response rating (0 = no effect, 100 = complete control), Corn (corn; 62 g ai/ha): 0 | Plant response rating, Corn (corn; [3]): 0 | Plant response rating, Corn (corn; [4]): 0 | Pigweed plant response rating (redroot pigweed; [9]): 45 | Plant response rating, Pigweed (redroot pigweed; [10]): 75 | Pigweed plant response rating (redroot pigweed; [11]): 90 | Pigweed plant response rating (redroot pigweed; [12]): 40 | Plant response rating (0 = no effect, 100 = complete control), Pigweed (pigweed; 62 g ai/ha): 95 | Plant response rating, Pigweed (pigweed; [3]): 100 | Plant response rating (0 = no effect, 100 = complete control), Morningglory (morningglory [1]; 62 g ai/ha): 0 | Plant response rating, Morningglory (morningglory [1]; [3]): 0 | Plant response rating (0 = no effect, 100 = complete control), Nightshade (eastern black nightshade; 62 g ai/ha): 55 | Plant response rating, Nightshade (eastern black nightshade; [3]): 95 | Plant response rating (0 = no effect, 100 = complete control), Johnsongrass (johnsongrass; 62 g ai/ha): 15 | Plant response rating, Johnsongrass (johnsongrass; [3]): 40 | Morningglory plant response rating (morningglory [2]; [9]): 15 | Plant response rating, Morningglory (morningglory [2]; [10]): 15 | Morningglory plant response rating (morningglory [2]; [11]): 35 | Morningglory plant response rating (morningglory [2]; [12]): 15 | Plant response rating (0 = no effect, 100 = complete control), Surinam Grass (Surinam grass; 62 g ai/ha): 0 | Plant response rating, Surinam Grass (Surinam grass; [3]): 0

CC(=NO)c1cccc(NC(=O)c2sc(C(C)(C)C)nc2C)c1 [Compound 195]
Plant response rating, Velvetleaf (velvetleaf; 62 g ai/ha, scale 0 to 100): 0 | Plant response rating, Velvetleaf (velvetleaf; [3]): 50 | Plant response rating, Velvetleaf (velvetleaf; 250 g ai/ha, scale 0-100): 55 | Velvetleaf plant response rating (velvetleaf): 100 | Plant response rating, Cocklebur (cocklebur; 62 g ai/ha, scale 0 to 100): 0 | Plant response rating, Cocklebur (cocklebur; [3]): 0 | Plant response rating, Cocklebur (cocklebur; 250 g ai/ha, scale 0-100): 0 | Cocklebur plant response rating (cocklebur): 0 | Plant response rating, Corn (corn; 62 g ai/ha, scale 0 to 100): 0 | Plant response rating, Corn (corn; [3]): 0 | Plant response rating, Corn (corn; 250 g ai/ha, scale 0-100): 0 | Corn plant response rating (corn): 0 | Pigweed plant response rating (redroot pigweed; [5]): 5 | Plant response rating, Pigweed (redroot pigweed; [6]): 25 | Pigweed plant response rating (redroot pigweed; [13]): 0 | Pigweed plant response rating (redroot pigweed; [14]): 0 | Plant response rating, Pigweed (pigweed; 62 g ai/ha, scale 0 to 100): 55 | Plant response rating, Pigweed (pigweed; [3]): 60 | Plant response rating, Pigweed (pigweed; 250 g ai/ha, scale 0-100): 90 | Pigweed plant response rating (pigweed): 90 | Plant response rating, Morningglory (morningglory [1]; 62 g ai/ha, scale 0 to 100): 0 | Plant response rating, Morningglory (morningglory [1]; [3]): 0 | Plant response rating, Morningglory (morningglory [1]; 250 g ai/ha, scale 0-100): 0 | Morningglory plant response rating (morningglory [1]): 0 | Plant response rating, Nightshade (eastern black nightshade; 62 g ai/ha, scale 0 to 100): 0 | Plant response rating, Nightshade (eastern black nightshade; [3]): 0 | Plant response rating, Nightshade (eastern black nightshade; 250 g ai/ha, scale 0-100): 0 | Nightshade plant response rating (eastern black nightshade): 0 | Plant response rating, Johnsongrass (johnsongrass; 62 g ai/ha, scale 0 to 100): 0 | Plant response rating, Johnsongrass (johnsongrass; [3]): 0 | Plant response rating, Johnsongrass (johnsongrass; 250 g ai/ha, scale 0-100): 0 | Johnsongrass plant response rating (johnsongrass): 0 | Morningglory plant response rating (morningglory [2]; [5]): 10 | Plant response rating, Morningglory (morningglory [2]; [6]): 10 | Morningglory plant response rating (morningglory [2]; [13]): 10 | Morningglory plant response rating (morningglory [2]; [14]): 5 | Plant response rating, Surinam Grass (Surinam grass; 62 g ai/ha, scale 0 to 100): 0 | Plant response rating, Surinam Grass (Surinam grass; [3]): 0 | Plant response rating, Surinam Grass (Surinam grass; 250 g ai/ha, scale 0-100): 85 | Surinam Grass plant response rating (Surinam grass): 85

Reference: patent publication US20060069132A1, “Azolecarboxamide herbicides” (priority 2004, published 2006)
